The text below walks through data of patent US9636418B2 (priority 2013, dated 2017).

Like-named read-outs stand apart in the source and are kept apart here.

Common to all, as to assay: cell-based
Assay [1] concerns the target T1, hNav1.7 (Homo sapiens, UniProt Q15858). The conditions noted are these: IonWorks Quattro; read-out: IC50 Nav1.7.
Assay [2] addresses T2, hNav1.4 (Homo sapiens, UniProt P35499). The conditions noted are these: for IC50: PatchXpress, tonic block, read-out: PX hNav1.4 Tonic IC50; for Nav1.4/Nav1.7: ratio of PX tonic IC50 values.
Assay [3] concerns the target T1, hNav1.7. In kind it is cell-based. To be noted: PatchXpress, tonic block; read-out: PX hNav1.7 Tonic IC50.
Another assay addresses hNav1.5 (Homo sapiens, UniProt Q14524). The conditions noted are these: for IC50: PatchXpress, tonic block, read-out: PX hNav1.5 Tonic IC50; for Nav1.5/Nav1.7: ratio of PX tonic IC50 values.
For assay [4], the target named is T2, hNav1.4. The conditions noted are these: ratio of IonWorks Quattro IC50 values. A general note: The patch-clamp technique gives a direct electrical read-out from membranes.

In general, IC50 refers to the point on the concentration scale where inhibition reaches its midpoint.

T2 sequence (P35499 whole entry): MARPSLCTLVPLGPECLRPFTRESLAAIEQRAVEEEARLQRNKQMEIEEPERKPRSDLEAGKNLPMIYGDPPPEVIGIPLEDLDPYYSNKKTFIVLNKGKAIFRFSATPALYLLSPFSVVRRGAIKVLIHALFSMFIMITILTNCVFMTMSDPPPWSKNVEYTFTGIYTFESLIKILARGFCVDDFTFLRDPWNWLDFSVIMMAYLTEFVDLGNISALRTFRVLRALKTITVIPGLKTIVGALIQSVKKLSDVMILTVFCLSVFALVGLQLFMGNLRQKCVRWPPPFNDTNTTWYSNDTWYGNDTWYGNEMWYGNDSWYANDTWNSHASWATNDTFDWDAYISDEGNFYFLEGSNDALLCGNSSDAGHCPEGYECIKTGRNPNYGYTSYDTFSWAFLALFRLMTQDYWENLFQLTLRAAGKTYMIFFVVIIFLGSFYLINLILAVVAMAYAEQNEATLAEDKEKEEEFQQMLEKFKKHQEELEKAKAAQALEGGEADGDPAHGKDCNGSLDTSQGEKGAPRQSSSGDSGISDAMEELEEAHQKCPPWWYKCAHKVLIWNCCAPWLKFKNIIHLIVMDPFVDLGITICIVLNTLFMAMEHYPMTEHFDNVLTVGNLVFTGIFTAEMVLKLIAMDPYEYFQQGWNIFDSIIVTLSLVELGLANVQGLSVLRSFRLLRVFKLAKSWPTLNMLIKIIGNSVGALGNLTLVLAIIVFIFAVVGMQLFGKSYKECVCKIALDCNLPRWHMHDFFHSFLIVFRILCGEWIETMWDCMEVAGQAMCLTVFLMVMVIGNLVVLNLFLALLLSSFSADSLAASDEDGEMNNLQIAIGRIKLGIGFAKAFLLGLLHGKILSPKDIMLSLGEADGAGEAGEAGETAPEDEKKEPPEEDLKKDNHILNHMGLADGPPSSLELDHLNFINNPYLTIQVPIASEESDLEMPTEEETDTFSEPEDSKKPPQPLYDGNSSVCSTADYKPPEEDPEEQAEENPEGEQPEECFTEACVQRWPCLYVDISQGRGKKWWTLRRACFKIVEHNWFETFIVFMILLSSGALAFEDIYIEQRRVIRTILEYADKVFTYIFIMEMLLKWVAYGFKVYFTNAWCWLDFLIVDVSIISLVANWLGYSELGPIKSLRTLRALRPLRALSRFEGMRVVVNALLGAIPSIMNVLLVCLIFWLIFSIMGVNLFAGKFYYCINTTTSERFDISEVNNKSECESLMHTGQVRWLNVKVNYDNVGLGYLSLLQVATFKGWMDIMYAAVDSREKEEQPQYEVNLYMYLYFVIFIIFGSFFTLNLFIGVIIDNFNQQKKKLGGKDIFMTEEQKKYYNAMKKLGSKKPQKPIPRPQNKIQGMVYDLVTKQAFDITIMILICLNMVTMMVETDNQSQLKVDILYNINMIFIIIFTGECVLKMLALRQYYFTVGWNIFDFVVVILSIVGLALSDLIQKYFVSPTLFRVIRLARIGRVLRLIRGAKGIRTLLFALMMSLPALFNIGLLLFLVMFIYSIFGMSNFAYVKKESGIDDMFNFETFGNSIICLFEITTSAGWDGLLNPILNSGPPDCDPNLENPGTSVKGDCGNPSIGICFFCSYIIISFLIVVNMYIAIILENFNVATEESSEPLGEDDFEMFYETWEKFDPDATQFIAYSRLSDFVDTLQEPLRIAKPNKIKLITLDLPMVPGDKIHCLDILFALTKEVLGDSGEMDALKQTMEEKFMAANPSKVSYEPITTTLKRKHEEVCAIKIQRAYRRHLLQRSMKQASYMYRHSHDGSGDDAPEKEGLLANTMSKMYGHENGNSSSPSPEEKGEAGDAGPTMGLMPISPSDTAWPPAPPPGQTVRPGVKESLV
T1 sequence (Q15858 whole entry): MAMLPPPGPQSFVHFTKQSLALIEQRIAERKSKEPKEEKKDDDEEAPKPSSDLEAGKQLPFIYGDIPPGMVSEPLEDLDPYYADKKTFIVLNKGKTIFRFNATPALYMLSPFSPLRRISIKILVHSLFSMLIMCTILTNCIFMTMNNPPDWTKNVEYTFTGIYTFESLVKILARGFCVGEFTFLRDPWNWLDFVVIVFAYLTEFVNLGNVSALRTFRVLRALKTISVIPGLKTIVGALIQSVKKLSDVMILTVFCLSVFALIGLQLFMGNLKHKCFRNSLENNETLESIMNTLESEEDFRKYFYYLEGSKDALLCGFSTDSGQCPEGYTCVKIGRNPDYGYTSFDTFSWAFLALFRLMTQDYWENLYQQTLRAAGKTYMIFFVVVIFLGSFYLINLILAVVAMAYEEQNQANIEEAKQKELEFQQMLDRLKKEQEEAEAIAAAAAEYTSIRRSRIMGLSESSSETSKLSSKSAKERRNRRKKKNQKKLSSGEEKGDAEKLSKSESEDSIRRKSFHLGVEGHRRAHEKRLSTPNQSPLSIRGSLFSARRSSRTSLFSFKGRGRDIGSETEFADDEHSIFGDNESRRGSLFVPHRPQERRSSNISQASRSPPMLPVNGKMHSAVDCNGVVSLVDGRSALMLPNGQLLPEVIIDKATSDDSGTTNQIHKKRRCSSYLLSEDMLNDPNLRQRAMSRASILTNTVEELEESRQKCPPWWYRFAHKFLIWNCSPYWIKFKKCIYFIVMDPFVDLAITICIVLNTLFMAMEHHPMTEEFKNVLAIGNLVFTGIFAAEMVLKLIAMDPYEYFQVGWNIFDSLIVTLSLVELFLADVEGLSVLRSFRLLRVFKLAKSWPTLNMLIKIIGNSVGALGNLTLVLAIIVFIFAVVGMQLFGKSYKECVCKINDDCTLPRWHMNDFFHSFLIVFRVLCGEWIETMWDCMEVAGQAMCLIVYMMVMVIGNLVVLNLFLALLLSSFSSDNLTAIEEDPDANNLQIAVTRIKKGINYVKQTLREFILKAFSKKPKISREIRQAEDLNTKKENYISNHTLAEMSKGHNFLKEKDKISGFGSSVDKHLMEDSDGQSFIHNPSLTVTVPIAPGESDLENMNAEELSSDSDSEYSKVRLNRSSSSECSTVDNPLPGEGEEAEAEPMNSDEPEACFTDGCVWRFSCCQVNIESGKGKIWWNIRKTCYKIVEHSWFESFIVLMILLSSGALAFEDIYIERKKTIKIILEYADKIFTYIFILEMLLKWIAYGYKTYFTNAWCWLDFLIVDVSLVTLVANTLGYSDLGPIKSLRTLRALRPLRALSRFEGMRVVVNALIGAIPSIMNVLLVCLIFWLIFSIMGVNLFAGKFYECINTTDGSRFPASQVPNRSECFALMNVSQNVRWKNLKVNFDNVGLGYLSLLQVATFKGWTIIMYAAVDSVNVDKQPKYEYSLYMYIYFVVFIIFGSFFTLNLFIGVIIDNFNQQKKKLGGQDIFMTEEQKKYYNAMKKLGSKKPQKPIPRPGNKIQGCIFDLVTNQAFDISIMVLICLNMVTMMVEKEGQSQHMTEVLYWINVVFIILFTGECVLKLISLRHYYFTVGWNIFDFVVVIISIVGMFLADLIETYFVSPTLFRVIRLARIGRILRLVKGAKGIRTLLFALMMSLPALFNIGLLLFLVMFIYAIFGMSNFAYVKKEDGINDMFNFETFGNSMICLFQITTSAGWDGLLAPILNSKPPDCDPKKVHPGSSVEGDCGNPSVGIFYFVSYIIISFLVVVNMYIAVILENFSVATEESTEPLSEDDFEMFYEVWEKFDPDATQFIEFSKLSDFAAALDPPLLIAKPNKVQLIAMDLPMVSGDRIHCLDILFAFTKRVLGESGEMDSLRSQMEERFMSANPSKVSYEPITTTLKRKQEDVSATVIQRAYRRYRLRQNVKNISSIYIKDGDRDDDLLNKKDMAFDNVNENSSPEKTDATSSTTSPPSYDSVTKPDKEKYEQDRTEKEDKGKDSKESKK

In the case of `C#CC[C@H](N)C(=O)N[C@@H](Cc1ccc(O)cc1)C(=O)N[C@H]1CSSC[C@@H]2NC(=O)[C@@H]3CSSC[C@@H](C(=O)N[C@@H](CCCNC(=N)N)C(=O)N[C@@H](CCCCN)C(=O)N[C@H](C(=O)N[C@@H](Cc4ccccc4)C(N)=O)[C@@H](C)CC)NC(=O)[C@H](Cc4c[nH]c5ccccc45)NC(=O)[C@H](CC(C)C)NC(=O)[C@H](CCCCN)NC(=O)[C@H](CSSC[C@H](NC(=O)[C@H]([C@@H](C)O)NC(=O)[C@H](Cc4c[nH]c5ccccc45)NC(=O)[C@H](CCCC)NC(=O)[C@H](Cc4c[nH]c5ccccc45)NC(=O)[C@H](CCCCN)NC(=O)[C@H](CCC(N)=O)NC1=O)C(=O)N[C@@H](CC(=O)O)C(=O)N[C@@H](CO)C(=O)N[C@@H](CCCCN)C(=O)N[C@@H](CCCNC(=N)N)C(=O)N[C@@H](C)C(=O)N3)NC(=O)[C@H](CCC(=O)O)NC(=O)[C@H](CC(C)C)NC(=O)CNC(=O)[C@H](CCC(=O)O)NC2=O` [compound 301], the IC50 at hNav1.7 [1] was found to be 35 nM.
Take `C#CC[C@H](N)C(=O)NCCOCCOCCOCCOCCOCCOCCOCCOCCOCCOCCOCCOCCC(=O)NCCCC[C@@H]1NC(=O)[C@@H]2CSSC[C@H](NC(=O)[C@@H](N)Cc3ccc(O)cc3)C(=O)N[C@@H](CCC(N)=O)C(=O)N[C@@H](CCCCN)C(=O)N[C@@H](Cc3c[nH]c4ccccc34)C(=O)N[C@@H](CCCC)C(=O)N[C@@H](Cc3c[nH]c4ccccc34)C(=O)N[C@@H]([C@@H](C)O)C(=O)N[C@H]3CSSC[C@H](NC(=O)[C@H](CCC(=O)O)NC(=O)[C@H](CC(C)C)NC(=O)CNC1=O)C(=O)N[C@@H](CCCCN)C(=O)N[C@@H](CC(C)C)C(=O)N[C@@H](Cc1c[nH]c4ccccc14)C(=O)N[C@H](C(=O)N[C@@H](CCCNC(=N)N)C(=O)N[C@@H](CCCCN)C(=O)N[C@H](C(=O)N[C@@H](Cc1c[nH]c4ccccc14)C(N)=O)[C@@H](C)CC)CSSC[C@H](NC(=O)[C@H](C)NC(=O)[C@H](CCCNC(=N)N)NC(=O)[C@H](CCCCN)NC(=O)[C@H](CO)NC(=O)[C@H](CC(=O)O)NC3=O)C(=O)N2` [compound 292]: the IC50 at hNav1.4 [2] was 1630 nM; at hNav1.7 [3] it was 900 nM; at hNav1.7 [1], 82 nM; on hNav1.5, 3120 nM. Besides, at hNav1.4 [2], the Nav1.4/Nav1.7 amounted to 2. Also, at hNav1.5, the Nav1.5/Nav1.7 is 3.
`CC[C@H](C)[C@H](NC(=O)[C@@H](NC(=O)[C@H](CCCCN)NC(=O)[C@H](CCCNC(=N)N)NC(=O)[C@@H]1CSSC[C@@H]2NC(=O)[C@H](C)NC(=O)[C@H](CCCNC(=N)N)NC(=O)[C@H](CCCCN)NC(=O)[C@H](CO)NC(=O)[C@H](CC(=O)O)NC(=O)[C@@H]3CSSC[C@H](NC(=O)[C@H](CCC(=O)O)NC(=O)[C@H](CC(C)C)NC(=O)CNC(=O)[C@H](CCC(=O)O)NC(=O)[C@H](CSSC[C@H](NC(=O)[C@@H](N)Cc4ccc(O)cc4)C(=O)N[C@@H](CCC(N)=O)C(=O)N[C@@H](CCCCN)C(=O)N[C@@H](Cc4c[nH]c5ccccc45)C(=O)N[C@@H](CCSC)C(=O)N[C@@H](Cc4c[nH]c5ccccc45)C(=O)N[C@@H](Cc4cn(CCCOCCOCCOCCOCCOCCOCCOCCOCCOCCOCCN)nn4)C(=O)N3)NC2=O)C(=O)N[C@@H](CCCCN)C(=O)N[C@@H](CC(C)C)C(=O)N[C@@H](Cc2c[nH]c3ccccc23)C(=O)N1)[C@@H](C)CC)C(N)=O` [compound 171]: the Nav1.4/Nav1.7 on hNav1.4 [4] came to 1. Besides, on hNav1.7 [1], the IC50 is ≥ 5000 nM.
Regarding `C#CC[C@H](N)C(=O)N[C@@H](Cc1ccc(O)cc1)C(=O)N[C@H]1CSSC[C@@H]2NC(=O)[C@@H]3CSSC[C@@H](C(=O)N[C@@H](CCCNC(=N)N)C(=O)N[C@@H](CCCCN)C(=O)N[C@H](C(=O)N[C@@H](Cc4c[nH]c5ccccc45)C(N)=O)[C@@H](C)CC)NC(=O)[C@H](Cc4c[nH]c5ccccc45)NC(=O)[C@H](CC(C)C)NC(=O)[C@H](CCCCN)NC(=O)[C@H](CSSC[C@H](NC(=O)[C@H]([C@@H](C)O)NC(=O)[C@H](Cc4c[nH]c5ccccc45)NC(=O)[C@H](CCCC)NC(=O)[C@H](Cc4c[nH]c5ccccc45)NC(=O)[C@H](CCCCN)NC(=O)[C@H](CCC(N)=O)NC1=O)C(=O)N[C@@H](CC(=O)O)C(=O)N[C@@H](CO)C(=O)N[C@@H](CCCCN)C(=O)N[C@@H](CCCNC(=N)N)C(=O)N[C@@H](C)C(=O)N3)NC(=O)[C@H](CCCNC(=N)N)NC(=O)[C@H](CC(C)C)NC(=O)CNC(=O)[C@H](CCC(=O)O)NC2=O` [compound 296], the IC50 at hNav1.7 [1] was 19 nM.
As to `C#CC[C@H](N)C(=O)NCCOCCOCCOCCOCCC(=O)NCCCC[C@@H]1NC(=O)[C@H](CCCNC(=N)N)NC(=O)[C@H](CCCCN)NC(=O)[C@H](CO)NC(=O)[C@H](CC(=O)O)NC(=O)[C@@H]2CSSC[C@@H]3NC(=O)[C@H](CCC(=O)O)NC(=O)[C@H](CC(C)C)NC(=O)CNC(=O)[C@H](CCC(=O)O)NC(=O)[C@H](CSSC[C@H](NC(=O)[C@@H](N)Cc4ccc(O)cc4)C(=O)N[C@@H](CCC(N)=O)C(=O)N[C@@H](CCCCN)C(=O)N[C@@H](Cc4c[nH]c5ccccc45)C(=O)N[C@@H](CCCC)C(=O)N[C@@H](Cc4c[nH]c5ccccc45)C(=O)N[C@@H]([C@@H](C)O)C(=O)N2)NC(=O)[C@H](CSSC[C@@H](C(=O)N[C@@H](CCCNC(=N)N)C(=O)N[C@@H](CCCCN)C(=O)N[C@H](C(=O)N[C@@H](Cc2c[nH]c4ccccc24)C(N)=O)[C@@H](C)CC)NC(=O)[C@H](Cc2c[nH]c4ccccc24)NC(=O)[C@H](CC(C)C)NC(=O)[C@H](CCCCN)NC3=O)NC1=O` [compound 291], the IC50 on hNav1.4 [2] is 1130 nM; on hNav1.7 [3], 30 nM; on hNav1.7 [1], 28 nM; on hNav1.5, 3010 nM. The Nav1.4/Nav1.7 at hNav1.4 [2] is 38. On hNav1.5, the Nav1.5/Nav1.7 came out at 100.
Take `C#CC[C@H](N)C(=O)NCCOCCOCCOCCOCCOCCOCCOCCOCCOCCOCCOCCOCCC(=O)NCCCC[C@@H]1NC(=O)[C@H](CCCNC(=N)N)NC(=O)[C@H](CCCCN)NC(=O)[C@H](CO)NC(=O)[C@H](CC(=O)O)NC(=O)[C@@H]2CSSC[C@@H]3NC(=O)[C@H](CCC(=O)O)NC(=O)[C@H](CC(C)C)NC(=O)CNC(=O)[C@H](CCC(=O)O)NC(=O)[C@H](CSSC[C@H](NC(=O)[C@@H](N)Cc4ccc(O)cc4)C(=O)N[C@@H](CCC(N)=O)C(=O)N[C@@H](CCCCN)C(=O)N[C@@H](Cc4c[nH]c5ccccc45)C(=O)N[C@@H](CCCC)C(=O)N[C@@H](Cc4c[nH]c5ccccc45)C(=O)N[C@@H]([C@@H](C)O)C(=O)N2)NC(=O)[C@H](CSSC[C@@H](C(=O)N[C@@H](CCCNC(=N)N)C(=O)N[C@@H](CCCCN)C(=O)N[C@H](C(=O)N[C@@H](Cc2c[nH]c4ccccc24)C(N)=O)[C@@H](C)CC)NC(=O)[C@H](Cc2c[nH]c4ccccc24)NC(=O)[C@H](CC(C)C)NC(=O)[C@H](CCCCN)NC3=O)NC1=O` [compound 290]: the IC50 at hNav1.4 [2] was determined as 2730 nM; at hNav1.7 [3] it was 520 nM; on hNav1.7 [1], 52 nM; on hNav1.5, 6100 nM. The Nav1.4/Nav1.7 on hNav1.4 [2] is on record as 5. Besides, on hNav1.5, the Nav1.5/Nav1.7 was 12.
Take `CCCC[C@@H]1NC(=O)[C@H](Cc2c[nH]c3ccccc23)NC(=O)[C@H](CCCCN)NC(=O)[C@H](CCC(N)=O)NC(=O)[C@@H](NC(=O)[C@@H](N)Cc2ccc(O)cc2)CSSC[C@@H]2NC(=O)[C@@H]3CSSC[C@@H](C(=O)N[C@@H](CCCNC(=N)N)C(=O)N[C@@H](CCCCN)C(=O)N[C@@H](Cc4ccc(O)cc4)C(=O)N[C@H](C(N)=O)[C@@H](C)CC)NC(=O)[C@H](Cc4c[nH]c5ccccc45)NC(=O)[C@H](CC(C)C)NC(=O)[C@H](CCCCN)NC(=O)[C@H](CSSC[C@H](NC(=O)[C@H]([C@@H](C)O)NC(=O)[C@H](Cc4c[nH]c5ccccc45)NC1=O)C(=O)N[C@@H](CC(=O)O)C(=O)N[C@@H](CO)C(=O)N[C@@H](CCCCN)C(=O)N[C@@H](CCCNC(=N)N)C(=O)N[C@@H](C)C(=O)N3)NC(=O)[C@H](CCC(=O)O)NC(=O)[C@H](CC(C)C)NC(=O)CNC(=O)[C@H](CCCCN=[N+]=[N-])NC2=O` [compound 322]: at hNav1.7 [1], the IC50 came out at 67 nM.
Turning to `C#CC[C@H](N)C(=O)N[C@@H](Cc1ccc(O)cc1)C(=O)N[C@H]1CSSC[C@@H]2NC(=O)[C@@H]3CSSC[C@@H](C(=O)N[C@@H](CCCNC(=N)N)C(=O)N[C@@H](CCCCN)C(=O)N[C@H](C(=O)N[C@@H](Cc4c[nH]c5ccccc45)C(N)=O)[C@@H](C)CC)NC(=O)[C@H](Cc4c[nH]c5ccccc45)NC(=O)[C@H](CC(C)C)NC(=O)[C@H](CCCCN)NC(=O)[C@H](CSSC[C@H](NC(=O)[C@H]([C@@H](C)O)NC(=O)[C@H](Cc4c[nH]c5ccccc45)NC(=O)[C@H](CCSC)NC(=O)[C@H](Cc4c[nH]c5ccccc45)NC(=O)[C@H](CCCCN)NC(=O)[C@H](CCC(N)=O)NC1=O)C(=O)N[C@@H](CC(=O)O)C(=O)N[C@@H](CO)C(=O)N[C@@H](CCCCN)C(=O)N[C@@H](CCCNC(=N)N)C(=O)N[C@@H](C)C(=O)N3)NC(=O)[C@H](CCC(=O)O)NC(=O)[C@H](CC(C)C)NC(=O)CNC(=O)[C@H](CCC(=O)O)NC2=O` [compound 295], the IC50 at hNav1.7 [1] came out at 18 nM.
`CC[C@H](C)[C@H](NC(=O)[C@H](CCCCN)NC(=O)[C@H](CCCNC(=N)N)NC(=O)[C@@H]1CSSC[C@@H]2NC(=O)[C@H](C)NC(=O)[C@H](CCCNC(=N)N)NC(=O)[C@H](CCCCN)NC(=O)[C@H](CO)NC(=O)[C@H](CC(=O)O)NC(=O)[C@@H]3CSSC[C@H](NC(=O)[C@H](CCC(=O)O)NC(=O)[C@H](CC(C)C)NC(=O)CNC(=O)[C@H](CCC(=O)O)NC(=O)[C@H](CSSC[C@H](NC(=O)[C@@H](N)Cc4ccc(O)cc4)C(=O)N[C@@H](CCC(N)=O)C(=O)N[C@@H](CCCCN)C(=O)N[C@@H](Cc4c[nH]c5ccccc45)C(=O)N[C@@H](CCSC)C(=O)N[C@@H](Cc4c[nH]c5ccccc45)C(=O)N[C@@H]([C@@H](C)O)C(=O)N3)NC2=O)C(=O)N[C@@H](CCCCN)C(=O)N[C@@H](CC(C)C)C(=O)N[C@@H](Cc2c[nH]c3ccccc23)C(=O)N1)C(=O)N[C@@H](Cc1cn(CCCOCCOCCOCCOCCOCCOCCOCCOCCOCCOCCN)nn1)C(N)=O` [compound 188]: on hNav1.4 [4], the Nav1.4/Nav1.7 was found to be 1. Further, at hNav1.7 [1], the IC50 is ≥ 5000 nM.
